# Read-outs that look alike come from different tables or passages of the source. Positions of bridges follow the written chain, without caps; N, C: chain ends. Non-standard residues stand in square brackets, D forms with d. Residues, ends and D or L forms follow the SMILES beside them. Chains are numbered I, II in the order given. No end group written: not given here. Ahx = NCCCCCC(=O)O
# Key:
# E. coli ATCC 25922 [1] = conditions: cited from earlier work
# Method: This apparent discrepancy could be related to the method used for determining the MIC [46, 47]. The antibacterial activity of LfcinB against E. coli IID861 was determined using the microdilution method with Mueller-Hinton broth (MIC = 50 µg/mL) or peptone-based broth (MIC = 6 µg/mL). […] Antibacterial activity against E. coli ATCC 25922 has also been reported, s ...
# E. coli ATCC 11775 = type: cell-based, Escherichia coli
# Method: (§1) The MIC and MBC were determined using a microdilution assay. In brief, bacterial strains were incubated for 18 to 24 h at 37 °C in an MH broth until an optical density of 0.15 to 0.30 (620 nm) was obtained. 90 µL of Mueller-Hinton broth (MHB) were mixed with 90 µL of peptide (440 µg/mL), and using a 96-well microtiter plate peptide, serial dilution (200, 100, 50, 25, 12.5, and 6.2 µg/mL) was performed. 10 µL of inoculum (2 × 10^6 CFU/mL) was added to each well. Final volume in each well was 100 µL. Then they were incubated for 24 h at 37 °C; and the absorbance at 620 nm was measured using an Asys Expert Plus ELISA reader. To determine the MBC, an aliquot was taken from each well and was spread onto a MHA plate. After 24 h at 37 °C, the CFU/mL was determined. Each of these tests was performed twice.
# [2] = system: S. maltophilia ATCC 13636; type: cell-based, Stenotrophomonas maltophilia
# Method: as §1
# [3] = system: S. enteritidis ATCC 13076; type: cell-based, Salmonella enteritidis
# Method: as §1
# E. coli K88 = system: E. coli K88; design: method as in PMID 11248238, PMID 21607695, doi:10.1002/(SICI)1099-1387(199901)5:1<32::AID-PSC172>3.0.CO; conditions: cited from earlier work
# E. coli ATCC 25922 [4] = system: E. coli ATCC 25922
# [5] = E. coli ATCC 11775, aliquot of each well spread on MHA plate, 24 h at 37 °C, CFU/mL, performed twice
# [6] = E. coli ATCC 11775, microdilution, Mueller-Hinton broth, 24 h at 37 °C, absorbance 620 nm, 6.2-200 µg/mL tested, performed twice
# [7] = E. coli ATCC 11775, value in brackets (µM), aliquot spread on MHA plate, 24 h at 37 °C, performed twice
# [8] = E. coli ATCC 11775, value in brackets (µM), microdilution, Mueller-Hinton broth, 24 h at 37 °C, performed twice
# [9] = S. maltophilia ATCC 13636, aliquot of each well spread on MHA plate, 24 h at 37 °C, CFU/mL, performed twice
# [10] = S. maltophilia ATCC 13636, microdilution, Mueller-Hinton broth, 24 h at 37 °C, absorbance 620 nm, 6.2-200 µg/mL tested, performed twice
# [11] = S. enteritidis ATCC 13076, aliquot of each well spread on MHA plate, 24 h at 37 °C, CFU/mL, performed twice
# [12] = S. enteritidis ATCC 13076, microdilution, Mueller-Hinton broth, 24 h at 37 °C, absorbance 620 nm, 6.2-200 µg/mL tested, performed twice
compound,measurement,setting,value
"KCRRWAQRWRMKKLGAPSITCVR [shorter peptide, 23 residues, from the literature]",MIC,E. coli ATCC 25922 [1],30 µg/mL
WRWRW,MIC,E. coli ATCC 25922 [1]; palindromic sequences,15 µg/mL
"N=C(N)NCCC[C@H](NC(=O)[C@H](Cc1c[nH]c2ccccc12)NC(=O)[C@H](CCC(N)=O)NC(=O)[C@H](Cc1c[nH]c2ccccc12)NC(=O)[C@H](CCCNC(=N)N)NC(=O)[C@@H](N)CCCNC(=N)N)C(=O)NCCCC[C@H](NC(=O)[C@H](CCCNC(=N)N)NC(=O)[C@H](Cc1c[nH]c2ccccc12)NC(=O)[C@H](CCC(N)=O)NC(=O)[C@H](Cc1c[nH]c2ccccc12)NC(=O)[C@H](CCCNC(=N)N)NC(=O)[C@@H](N)CCCNC(=N)N)C(=O)NCCCCCC(=O)N[C@@H](CSSC[C@H](NC(=O)CCCCCNC(=O)[C@H](CCCCNC(=O)[C@H](CCCNC(=N)N)NC(=O)[C@H](Cc1c[nH]c2ccccc12)NC(=O)[C@H](CCC(N)=O)NC(=O)[C@H](Cc1c[nH]c2ccccc12)NC(=O)[C@H](CCCNC(=N)N)NC(=O)[C@@H](N)CCCNC(=N)N)NC(=O)[C@H](CCCNC(=N)N)NC(=O)[C@H](Cc1c[nH]c2ccccc12)NC(=O)[C@H](CCC(N)=O)NC(=O)[C@H](Cc1c[nH]c2ccccc12)NC(=O)[C@H](CCCNC(=N)N)NC(=O)[C@@H](N)CCCNC(=N)N)C(N)=O)C(N)=O [LfcinB (20–25)4] (I: H-RRWQWRK[Ahx]C-NH2 / II: H-RRWQWRK[Ahx]C-NH2 / III: H-RRWQWR / IV: H-RRWQWR; amide I:7-III:C, II:7-IV:C; disulfide I:9-II:9)",MBC,"E. coli ATCC 11775; ATCC 11775, 24 h",5 µM
same,MIC,"E. coli ATCC 11775; ATCC 11775, 24 h",5 µM
same,MBC,E. coli ATCC 11775; [5],25 µg/mL
same,MIC,E. coli ATCC 11775; [6],25 µg/mL
same,MBC,E. coli ATCC 11775; [7],5.5 µM
same,MIC,E. coli ATCC 11775; [8],5.5 µM
same,MBC,"[2]; ATCC 13636, 24 h",44 µM
same,MIC,"[2]; ATCC 13636, 24 h",> 44 µM
same,MBC,[2]; [9],200 µg/mL
same,MIC,[2]; [10],> 200 µg/mL
same,MBC,"[3]; ATCC 13076, 24 h",22 µM
same,MIC,"[3]; ATCC 13076, 24 h",44 µM
same,MBC,[3]; [11],100 µg/mL
same,MIC,[3]; [12],200 µg/mL
RWRWR,MIC,E. coli ATCC 25922 [1]; palindromic sequences,200 µg/mL
WRYRW,MIC,E. coli ATCC 25922 [1]; palindromic sequences,100 µg/mL
RRWQWR-NH2 [LfcinB 20–25],MBC,"E. coli ATCC 11775; ATCC 11775, 24 h",13 µM
same,MIC,"E. coli ATCC 11775; ATCC 11775, 24 h",13 µM
same,MBC,"[2]; ATCC 13636, 24 h",> 203 µM
same,MIC,"[2]; ATCC 13636, 24 h",> 203 µM
same,MBC,"[3]; ATCC 13076, 24 h",102 µM
same,MIC,"[3]; ATCC 13076, 24 h",102 µM
N=C(N)NCCC[C@H](NC(=O)[C@H](Cc1c[nH]c2ccccc12)NC(=O)[C@H](CCC(N)=O)NC(=O)[C@H](Cc1c[nH]c2ccccc12)NC(=O)[C@H](CCCNC(=N)N)NC(=O)[C@@H](N)CCCNC(=N)N)C(=O)NCCCC[C@H](NC(=O)[C@H](CCCNC(=N)N)NC(=O)[C@H](Cc1c[nH]c2ccccc12)NC(=O)[C@H](CCC(N)=O)NC(=O)[C@H](Cc1c[nH]c2ccccc12)NC(=O)[C@H](CCCNC(=N)N)NC(=O)[C@@H](N)CCCNC(=N)N)C(=O)NCCCCCC(N)=O [LfcinB (20–25)2] (I: H-RRWQWRK[Ahx]-NH2 / II: H-RRWQWR; amide I:7-II:C),MBC,"E. coli ATCC 11775; ATCC 11775, 24 h",3 µM
same,MIC,"E. coli ATCC 11775; ATCC 11775, 24 h",3 µM
same,MBC,E. coli ATCC 11775; [5],6.2 µg/mL
same,MIC,E. coli ATCC 11775; [6],6.2 µg/mL
same,MBC,E. coli ATCC 11775; [7],2.8 µM
same,MIC,E. coli ATCC 11775; [8],2.8 µM
same,MBC,"[2]; ATCC 13636, 24 h",22.4 µM
same,MIC,"[2]; ATCC 13636, 24 h",22.4 µM
same,MBC,[2]; [9],50 µg/mL
same,MIC,[2]; [10],50 µg/mL
same,MBC,"[3]; ATCC 13076, 24 h",5.6 µM
same,MIC,"[3]; ATCC 13076, 24 h",6 µM
same,MBC,[3]; [11],12.5 µg/mL
same,MIC,[3]; [12],12.5 µg/mL
same,MIC,"[3]; S. enteritidis ATCC 13076, value in brackets (µM), microdilution, Mueller-Hinton broth, 24 h at 37 °C, performed twice",5.6 µM
CSCC[C@H](NC(=O)[C@H](CCCNC(=N)N)NC(=O)[C@H](Cc1c[nH]c2ccccc12)NC(=O)[C@H](CCC(N)=O)NC(=O)[C@H](Cc1c[nH]c2ccccc12)NC(=O)[C@H](CCCNC(=N)N)NC(=O)[C@H](CCCNC(=N)N)NC(=O)[C@H](CS)NC(=O)[C@H](CCCCN)NC(=O)[C@@H](N)Cc1ccccc1)C(=O)N[C@@H](CCCCN)C(=O)N[C@@H](CCCCN)C(=O)N[C@@H](CC(C)C)C(=O)NCC(=O)N[C@@H](C)C(N)=O [LfcinB 17–31],MBC,"E. coli ATCC 11775; ATCC 11775, 24 h",13 µM
same,MIC,"E. coli ATCC 11775; ATCC 11775, 24 h",13 µM
same,MBC,E. coli ATCC 11775; [5],25 µg/mL
same,MIC,E. coli ATCC 11775; [6],25 µg/mL
same,MBC,E. coli ATCC 11775; [7],12.5 µM
same,MIC,E. coli ATCC 11775; [8],12.5 µM
same,MBC,"[2]; ATCC 13636, 24 h",> 100 µM
same,MIC,"[2]; ATCC 13636, 24 h",> 100 µM
same,MBC,[2]; [9],> 200 µg/mL
same,MIC,[2]; [10],> 200 µg/mL
same,MBC,"[3]; ATCC 13076, 24 h",100 µM
same,MIC,"[3]; ATCC 13076, 24 h",> 100 µM
same,MBC,[3]; [11],200 µg/mL
same,MIC,[3]; [12],> 200 µg/mL
"FKCRRWAQRWRMKKLGAPSITCVRRAF [synthetic peptide homolog to LfcinB, 27 residues, from the literature]",MIC,E. coli ATCC 25922 [1],30 µg/mL
same,MIC,E. coli K88,64 µg/mL
RWQWRWQWR-NH2 [LfcinB 21–25Pal],MBC,"E. coli ATCC 11775; ATCC 11775, 24 h",8 µM
same,MIC,"E. coli ATCC 11775; ATCC 11775, 24 h",8 µM
same,MBC,"[2]; ATCC 13636, 24 h",136 µM
same,MIC,"[2]; ATCC 13636, 24 h",> 136 µM
same,MBC,"[3]; ATCC 13076, 24 h",17 µM
same,MIC,"[3]; ATCC 13076, 24 h",17 µM
same,MIC,E. coli ATCC 25922 [4],40 µg/mL
N=C(N)NCCC[C@@H]1NC(=O)[C@H](Cc2c[nH]c3ccccc23)NC(=O)[C@H](CCC(N)=O)NC(=O)[C@H](Cc2c[nH]c3ccccc23)NC(=O)[C@H](CCCNC(=N)N)NC(=O)[C@H](CCCNC(=N)N)NC(=O)[C@@H](N)CSSC[C@@H](C(N)=O)NC(=O)CCCCCNC1=O [LfcinB (20–25)Cyc] (H-CRRWQWR[Ahx]C-NH2; disulfide 1-9; N-terminus assumed),MBC,"E. coli ATCC 11775; ATCC 11775, 24 h",19 µM
same,MIC,"E. coli ATCC 11775; ATCC 11775, 24 h",19 µM
same,MBC,E. coli ATCC 11775; [5],25 µg/mL
same,MIC,E. coli ATCC 11775; [6],25 µg/mL
same,MBC,E. coli ATCC 11775; [7],21 µM
same,MIC,E. coli ATCC 11775; [8],21 µM
same,MBC,"[2]; ATCC 13636, 24 h",200 µg/mL
same,MIC,"[2]; ATCC 13636, 24 h",200 µg/mL
same,MBC,"[3]; ATCC 13076, 24 h",42 µM
same,MIC,"[3]; ATCC 13076, 24 h",42 µM
same,MBC,[3]; [11],50 µg/mL
same,MIC,[3]; [12],50 µg/mL

# Source: article PMC6155255, “Synthetic Peptides Derived from Bovine Lactoferricin Exhibit Antimicrobial Activity against E. coli ATCC 11775, S. maltophilia ATCC 13636 and S. enteritidis ATCC 13076” (Molecules : A Journal of Synthetic Chemistry and Natural …, 2017)
